T1: Or22a (Drosophila melanogaster, UniProt P81909)
T1 sequence (P81909 1-397): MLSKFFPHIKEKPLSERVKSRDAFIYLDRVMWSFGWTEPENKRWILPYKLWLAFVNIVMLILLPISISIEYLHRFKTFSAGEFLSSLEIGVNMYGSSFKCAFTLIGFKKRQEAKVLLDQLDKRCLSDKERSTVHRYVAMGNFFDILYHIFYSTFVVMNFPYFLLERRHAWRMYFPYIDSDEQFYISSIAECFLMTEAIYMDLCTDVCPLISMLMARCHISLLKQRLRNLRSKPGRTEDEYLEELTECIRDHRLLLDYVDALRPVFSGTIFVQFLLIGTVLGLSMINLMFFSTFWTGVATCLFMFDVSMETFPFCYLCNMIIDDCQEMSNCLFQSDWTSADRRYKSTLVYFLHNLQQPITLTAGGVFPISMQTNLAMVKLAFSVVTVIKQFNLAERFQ

T2: Or10a (Drosophila melanogaster, UniProt Q9VYZ1)
T2 sequence (Q9VYZ1 1-406): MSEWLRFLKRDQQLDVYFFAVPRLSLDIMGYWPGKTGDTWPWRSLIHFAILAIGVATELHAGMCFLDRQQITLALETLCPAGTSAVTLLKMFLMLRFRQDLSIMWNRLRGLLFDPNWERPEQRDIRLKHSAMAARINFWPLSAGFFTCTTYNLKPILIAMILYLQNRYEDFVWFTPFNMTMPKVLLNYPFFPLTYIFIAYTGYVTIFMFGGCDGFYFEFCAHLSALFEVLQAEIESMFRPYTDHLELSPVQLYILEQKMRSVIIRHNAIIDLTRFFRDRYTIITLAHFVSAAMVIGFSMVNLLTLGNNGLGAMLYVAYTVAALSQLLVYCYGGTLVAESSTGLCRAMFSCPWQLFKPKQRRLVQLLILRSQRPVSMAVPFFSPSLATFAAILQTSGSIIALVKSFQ

T3: OR35a (Drosophila melanogaster, UniProt Q9V3Q2)
T3 sequence (Q9V3Q2 1-409): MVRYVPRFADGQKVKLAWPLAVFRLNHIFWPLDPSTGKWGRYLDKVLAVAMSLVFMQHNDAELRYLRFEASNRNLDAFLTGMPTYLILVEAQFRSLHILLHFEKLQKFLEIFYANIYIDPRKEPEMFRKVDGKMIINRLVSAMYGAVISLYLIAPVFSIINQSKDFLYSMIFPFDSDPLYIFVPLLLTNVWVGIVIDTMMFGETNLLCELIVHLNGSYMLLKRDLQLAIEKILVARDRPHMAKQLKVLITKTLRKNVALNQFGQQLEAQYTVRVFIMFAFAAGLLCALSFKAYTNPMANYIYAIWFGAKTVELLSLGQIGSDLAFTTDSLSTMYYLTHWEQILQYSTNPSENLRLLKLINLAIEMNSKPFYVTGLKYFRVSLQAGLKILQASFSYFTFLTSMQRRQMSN


Columns and labels:
[1] = test system: BdorOBP2; conditions: ref 39; cited from earlier work
[2] = biological target: T1, Or22a; experiment: EIS sensor, Or22a liposomes on gold electrode (Example 1); assay type: binding; conditions: lowest three concentrations
Protocol: (§1) Liposomes were prepared using a phospholipid solution produced by evaporating solutions containing: phosphatidylethanolamine (PE), phosphatidylserine (PS), phosphatidylcholine (PC), and cholesterol (CH) at a molar ratio of 5:3:3:1 in a small glass tube under a stream of N2 gas, then desiccating under vacuum for 1 h. […] To promote the formation of liposomes, 10 freeze/thaw steps were performed by transferring the tube from liquid nitrogen to a 40° C. water bath. Liposomes were then sized by passing the lipid solution 11 times through a 100-nm polycarbonate membrane using an Avestin LiposoFAST extruder unit (Avestin, Germany). Glycerol was added at 10% of the final volume and aliquots at 10 mg/mL were snap frozen in liquid nitrogen and stored at -80° C. Prior to their use, liposomes were defrosted on ice and then destabilized by incubating with 0.2% CHAPS for 15 min at room temperature. Then 200 μg of purified odorant receptor^14 was added to 1 mg of liposomes and rotated at 10 rpm for 1 h at room temperature. […] The Bio-Beads were removed after each incubation period. The OR integrated liposomes were pelleted by centrifugation at 100,000 g for 1 h, and were resuspended in 500 μL of rehydration buffer. Integration of OrXs into liposomes was assessed by density gradient ultracentrifugation (DGU) using Accudenz (Accurate Chemical & Scientific Corporation, USA). […] The sample was then centrifuged at 100,000 g for 4 h at 4° C. Liposomes will float to the top of the gradient after Accudenz DGU due to their low density. 1.3 Electrode Cleaning Gold disk (2 mm) electrodes were cleaned with polishing with Alumina paste for 2 minutes, ultra-sonicated in pure ethanol and then Milli-Q water for 5 minutes each. […] Charge transfer resistance (Rct) of electrodes were calculated by fitting obtained data to a Randles' equivalent circuit [Rs+CPE/(Rct+W)] comprising of a solution resistance (Rs) in series with a constant phase element (CPE) and in parallel with charge transfer resistance (Rct) and Warburg diffusion element. […]

[3] = biological target: T2, Or10a; experiment: EIS sensor, Or10a liposomes on gold electrode (Example 1); assay type: binding; conditions: lowest three concentrations
Protocol: as §1

[4] = biological target: T3, OR35a; experiment: EIS sensor, Or35a liposomes on gold electrode (Example 1); assay type: binding; conditions: lowest three concentrations
Protocol: as §1

Row | Molecule | detection limit [1] | also measured
1 | C=CCc1ccc(OC)c(OC)c1 [4-allylveratrole] | ~10^−6 M | –
2 | CCCCOC(=O)c1ccccc1C(=O)OCCCC [dibutyl phthalate] | ~10^−6 M | –
3 | CC(=O)OCCC(C)C [isoamyl acetate] | ~10^−6 M | –
4 | COC(=O)c1ccc(O)cc1 [methy-p-hydroxyl benzoate] | ~10^−6 M | –
5 | O=CCc1ccccc1 [phenylacetaldehyde] | ~10^−6 M | –
6 | CC(=O)/C=C/C1=C(C)CCCC1(C)C [β-ionone] | ~10^−6 M | –
7 | Or22a: insect odorant receptor OrX in liposomes attached to the gold electrode of the EIS sensor (protein, UniProt P81909 1-397, looked up, in liposomes, insect odorant receptor OrX in liposomes attached to the gold electrode of the EIS sensor) Odorant receptor 22a: MLSKFFPHIKEKPLSERVKSRDAFIYLDRVMWSFGWTEPENKRWILPYKLWLAFVNIVMLILLPISISIEYLHRFKTFSAGEFLSSLEIGVNMYGSSFKCAFTLIGFKKRQEAKVLLDQLDKRCLSDKERSTVHRYVAMGNFFDILYHIFYSTFVVMNFPYFLLERRHAWRMYFPYIDSDEQFYISSIAECFLMTEAIYMDLCTDVCPLISMLMARCHISLLKQRLRNLRSKPGRTEDEYLEELTECIRDHRLLLDYVDALRPVFSGTIFVQFLLIGTVLGLSMINLMFFSTFWTGVATCLFMFDVSMETFPFCYLCNMIIDDCQEMSNCLFQSDWTSADRRYKSTLVYFLHNLQQPITLTAGGVFPISMQTNLAMVKLAFSVVTVIKQFNLAERFQ | – | Sensitivity of the sensor (slope of the linear range) [2]: 0.156 units/[log(conc/M)]
8 | Or10a: insect odorant receptor OrX in liposomes attached to the gold electrode of the EIS sensor (protein, UniProt Q9VYZ1 1-406, looked up, in liposomes, insect odorant receptor OrX in liposomes attached to the gold electrode of the EIS sensor) Odorant receptor 10a: MSEWLRFLKRDQQLDVYFFAVPRLSLDIMGYWPGKTGDTWPWRSLIHFAILAIGVATELHAGMCFLDRQQITLALETLCPAGTSAVTLLKMFLMLRFRQDLSIMWNRLRGLLFDPNWERPEQRDIRLKHSAMAARINFWPLSAGFFTCTTYNLKPILIAMILYLQNRYEDFVWFTPFNMTMPKVLLNYPFFPLTYIFIAYTGYVTIFMFGGCDGFYFEFCAHLSALFEVLQAEIESMFRPYTDHLELSPVQLYILEQKMRSVIIRHNAIIDLTRFFRDRYTIITLAHFVSAAMVIGFSMVNLLTLGNNGLGAMLYVAYTVAALSQLLVYCYGGTLVAESSTGLCRAMFSCPWQLFKPKQRRLVQLLILRSQRPVSMAVPFFSPSLATFAAILQTSGSIIALVKSFQ | – | Sensitivity of the sensor (slope of the linear range) [3]: 0.313 units/[log(conc/M)]
9 | Or35a: insect odorant receptor OrX in liposomes attached to the gold electrode of the EIS sensor (protein, UniProt Q9V3Q2 1-409, looked up, in liposomes, insect odorant receptor OrX in liposomes attached to the gold electrode of the EIS sensor) Odorant receptor 35a: MVRYVPRFADGQKVKLAWPLAVFRLNHIFWPLDPSTGKWGRYLDKVLAVAMSLVFMQHNDAELRYLRFEASNRNLDAFLTGMPTYLILVEAQFRSLHILLHFEKLQKFLEIFYANIYIDPRKEPEMFRKVDGKMIINRLVSAMYGAVISLYLIAPVFSIINQSKDFLYSMIFPFDSDPLYIFVPLLLTNVWVGIVIDTMMFGETNLLCELIVHLNGSYMLLKRDLQLAIEKILVARDRPHMAKQLKVLITKTLRKNVALNQFGQQLEAQYTVRVFIMFAFAAGLLCALSFKAYTNPMANYIYAIWFGAKTVELLSLGQIGSDLAFTTDSLSTMYYLTHWEQILQYSTNPSENLRLLKLINLAIEMNSKPFYVTGLKYFRVSLQAGLKILQASFSYFTFLTSMQRRQMSN | – | Sensitivity of the sensor (slope of the linear range) [4]: 0.116 units/[log(conc/M)]
